Experimental data taken from patent US5215991A, “Combination of selective alpha-adrenergic agonists and Na^+ /H^+ e x” (priority 1990, dated 1993).

How the values were obtained:
[1] = test system: New Zealand White rabbits with normotensive IOP; assay: Intraocular pressure (IOP) after topical ocular administration in normotensive New Zealand White rabbits; assay type: in vivo, New Zealand White rabbit; settings: for ΔIOP at 1 Hr., (X + p) / ΔIOP at 3 Hr., (X + p): Na+/H+ inhibitor X (1%) followed 30 min later by p-amino clonidine (0.1%), mean change from pre-drug level; for ΔIOP at 1 Hr., (X + p): 1 hour post p-amino clonidine; for ΔIOP at 3 Hr., (X + p): 3 hours post p-amino clonidine; for IOP change, amiloride analog administered alone: amiloride analogs alone, Example 2; for ΔIOP at 1 Hr., (X + p) - p / ΔIOP at 3 Hr., (X + p) - p: difference between X (1%) + p-amino clonidine (0.1%) and p-amino clonidine alone; for ocular hypotensive response to the alpha2 agonist after pretreatment with the Na+/H+ exchange inhibitor: pretreatment with Na+/H+ exchange inhibitor (1%) 30 min before the alpha2 agonist, FIGS. 2-4
Experimental: Ocular co-administration of an alpha2 agonist and a Na^+ /H^+ exchange inhibitor to effect lowering of IOP was experimentally tested in the New Zealand White rabbit.
The effect of co-administrating of alpha2 agonists and a Na^+ /H^+ exchange inhibitor on lowering IOP was testing in New Zealand White rabbits with normotensive IOP and weighing 3-4 kg. Topical anesthesia was produced by instillation of about 5 μl of […].
Separate solution of various alpha2 agonists and a Na^+ /H^+ exchange inhibitor were prepared by dissolving the specified quantity of agonists or the Na^+ /H^+ exchange inhibitor in distilled water to obtain the concentrations shown below in Table III. The pH of the final solutions ranged from about 4 to about 7.5 as indicated by the characteristics of the individual drugs.
The animals were divided into 2 groups. One group was treated with the Na^+ /H^+ exchange inhibitor followed by an alpha2 agonist and the other group received vehicle followed by the alpha2 agonist. Intraocular pressure (IOP) was measured in both eyes for each animal using a calibrated DIGILAB® pneumatonograph. […] Thirty minutes after application of the Na^+ /H^+ exchange inhibitor or vehicle, IOP was again measured for the eye. Immediately following these measurements, 50 μl of one of the alpha2 agonists solution given in Table III was administered to the test eye in the same manner described above. Thereafter, IOP measurements for each eye of each animal were made at 30 minutes after administration of the alpha2 agonist, then hourly for 6 hours. In separate experiments, the IOP response to the Na^+ /H^+ exchange inhibitor alone was determined.
In another series of experiments, carried out in substantially the same manner as set forth in Example 1, various amiloride analogs with varying potencies at inhibiting Na^+ /H^+ exchange were co-administered with an alpha2 agonist, p-amino clonidine, and IOP determine. […] The data are expressed as mean changes from pre-drug levels.

Na^+ /H^+ exchange = settings: inhibition of Na+/H+ exchange in human neutrophils; data taken from Simchowitz and Cragoe, Mol. Pharmacol. 30, 112-120, 1986; cited from earlier work

| Compound | ΔIOP at 1 Hr., (X + p) [1] | ΔIOP at 3 Hr., (X + p) [1] | IOP change, amiloride analog administered alone [1] | ΔIOP at 1 Hr., (X + p) - p [1] | ΔIOP at 3 Hr., (X + p) - p [1] | Ki (Na^+ /H^+ exchange) [µM] | IOP response to the Na+/H+ exchange inhibitor alone ([1]; three concentrations (0.1, 0.3, 1%), topical, FIG. 1) | ocular hypotensive response to the alpha2 agonist after pretreatment with the Na+/H+ exchange inhibitor [1] |
| --- | --- | --- | --- | --- | --- | --- | --- | --- |
| CN(C)c1nc(N)c(C(=O)N=C(N)N)nc1Cl [5-(N,N-dimethyl) amiloride] | +1.8 mmHg | +0.7 mmHg | substantially inactive | -1.2 mmHg | -1.9 mmHg | 6.9 | – | – |
| NC(N)=NC(=O)c1nc(Cl)c(N2CCCCCC2)nc1N [5-(N,N-hexamethylene) amiloride] | -8.6 mmHg | -7.5 mmHg | substantially inactive | -11.6 mmHg | -10.1 mmHg | 0.16 | – | – |
| CCN(c1nc(N)c(C(=O)N=C(N)N)nc1Cl)C(C)C [5-(N-ethyl-N-isopropyl) amiloride] | -7.2 mmHg | -5.7 mmHg | substantially inactive | -10.2 mmHg | -7.4 mmHg | 0.36 | did not significantly alter IOP | – |
| Brc1c(NC2=NCCN2)ccc2nccnc12 [5-bromo-6-(2-imidazolidine-2-ylamino)quinoxaline] | – | – | – | – | – | – | – | augmented |
| N=C(N)NC(=O)c1nc(Cl)c(N)nc1N [Amiloride] | +3.0 mmHg | +2.6 mmHg | – | +0.2 mmHg | +0.6 mmHg | 83.8 | – | – |
| Clc1cccc(Cl)c1N=C1NCCN1 [clonidine] | – | – | – | – | – | – | – | augmented |
| Nc1cc(Cl)c(NC2=NCCN2)c(Cl)c1 [p-amino clonidine, p-aminoclonidine] | – | – | – | – | – | – | – | augmented |
